We go through 13 compounds from publication PMC6084503, “Pyrrolo[3,2-c]pyridine derivatives with potential inhibitory effect against FMS kinase: in vitro biological studies” (Journal of Enzyme Inhibition and Medicinal Chemistry, 2018).

For one data set, the target named is T1, FMS kinase (Homo sapiens, UniProt P07333).
T1 construct: purchased Reaction Biology Corp
Put plainly: Kinase HotSpot cell-free enzyme assay, FMS kinase. The class given is biochemical. Conditions: for IC50: 10-dose duplicate assay, mean ± SEM, starting with 81 µM, threefold serial dilution, read-out: IC50 against FMS kinase. As to the method:
Reaction Biology Corp. Kinase HotSpot^SM service [http://www.reactionbiology.com] was utilised for screening of the target compounds as per the protocol reported in the literature.
Compounds 1a–r were tested in a 10-dose testing mode starting with 81 µM, threefold serial dilutions, against FMS kinase in a cell-free enzyme assay. […] This can be due to occupancy of a hydrophobic pocket with that additional benzoyl moiety and/or formation of additional hydrogen bond by the carbonyl oxygen.

Each structure is given as a SMILES string.

T1 sequence (P07333 20-972): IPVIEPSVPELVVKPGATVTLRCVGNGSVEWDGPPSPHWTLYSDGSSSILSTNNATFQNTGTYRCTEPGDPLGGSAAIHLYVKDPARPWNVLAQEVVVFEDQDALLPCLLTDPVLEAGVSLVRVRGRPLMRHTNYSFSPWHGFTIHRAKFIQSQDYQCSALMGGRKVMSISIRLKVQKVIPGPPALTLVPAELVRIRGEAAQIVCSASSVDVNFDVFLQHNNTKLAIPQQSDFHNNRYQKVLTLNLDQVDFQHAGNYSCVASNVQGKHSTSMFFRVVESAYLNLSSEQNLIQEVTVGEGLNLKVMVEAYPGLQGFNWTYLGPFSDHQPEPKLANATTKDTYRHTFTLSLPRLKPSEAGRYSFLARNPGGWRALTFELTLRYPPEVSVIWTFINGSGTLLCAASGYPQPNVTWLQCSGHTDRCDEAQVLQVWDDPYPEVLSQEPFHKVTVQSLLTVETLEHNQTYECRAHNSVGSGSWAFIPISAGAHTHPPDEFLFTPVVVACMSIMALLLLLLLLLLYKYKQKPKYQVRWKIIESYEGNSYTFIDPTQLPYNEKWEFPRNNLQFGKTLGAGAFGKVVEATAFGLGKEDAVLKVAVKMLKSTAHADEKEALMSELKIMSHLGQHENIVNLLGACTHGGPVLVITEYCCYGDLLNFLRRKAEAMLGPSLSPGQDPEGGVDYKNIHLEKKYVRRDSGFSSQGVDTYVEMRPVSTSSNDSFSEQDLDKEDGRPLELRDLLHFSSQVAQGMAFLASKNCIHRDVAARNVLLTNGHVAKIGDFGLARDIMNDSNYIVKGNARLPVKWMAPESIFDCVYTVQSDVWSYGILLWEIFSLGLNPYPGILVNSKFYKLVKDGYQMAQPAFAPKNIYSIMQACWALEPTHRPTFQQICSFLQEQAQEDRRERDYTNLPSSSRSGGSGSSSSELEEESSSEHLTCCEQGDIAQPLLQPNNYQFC

As for `O=C(Nc1ccc(-n2ccc3c(NC(=O)c4ccccc4)nccc32)cc1)Nc1ccc(Cl)c(C(F)(F)F)c1` [Compound 1c], the IC50 on FMS kinase was determined as 390 ± 20 nM.
For `O=C(Nc1cccc(-n2ccc3c(NC(=O)c4ccccc4)nccc32)c1)Nc1ccc(Cl)c(C(F)(F)F)c1` [Compound 1d], the melting point lay in the range of 143 to 145 °C. Besides, the IC50 on FMS kinase is 2470 ± 30 nM.
In turn, `O=C(Nc1ccc(-n2ccc3c(NC(=O)c4ccccc4)nccc32)cc1)Nc1cc(C(F)(F)F)cc(C(F)(F)F)c1` [Compound 1e] gave a melting point greater than 280 °C. Moreover, the IC50 at FMS kinase came to 60 ± 10 nM. For the same compound, the “Potency against FMS kinase relative to KIST101029” value on FMS kinase (ratio of IC50 values, more potent than lead compound KIST101029) amounted to 1.6 times.
As for `O=C(Nc1ccc(-n2ccc3c(NC(=O)c4ccccc4)nccc32)cc1)c1ccc(Cl)c(Cl)c1` [Compound 1f], the IC50 on FMS kinase is greater than 81000 nM.
Turning to `O=C(Nc1cccc(-n2ccc3c(NC(=O)c4ccccc4)nccc32)c1)c1ccc(Cl)c(Cl)c1` [Compound 1g], the IC50 at FMS kinase worked out at 1270 ± 70 nM.
Regarding `O=C(Nc1ccc(-n2ccc3c(NC(=O)c4ccccc4)nccc32)cc1)c1cccc(C(F)(F)F)c1` [Compound 1h], the 50% inhibitory concentration (IC50) on FMS kinase was 10800 ± 600 nM.
In the case of `O=C(Nc1cccc(-n2ccc3c(NC(=O)c4ccccc4)nccc32)c1)c1cccc(C(F)(F)F)c1` [Compound 1i], the melting point lay in the range of 142 to 144 °C. In addition, the IC50 at FMS kinase is greater than 81000 nM.
With `O=C(Nc1ccc(-n2ccc3c(NC(=O)c4ccccc4)nccc32)cc1)c1ccc(N2CCOCC2)c(C(F)(F)F)c1` [Compound 1j], the IC50 at FMS kinase was 33100 ± 450 nM.
For the compound `Nc1nccc2c1ccn2-c1ccc(NC(=O)Nc2ccc(Cl)c(C(F)(F)F)c2)cc1` [Compound 1l], the melting point is greater than 280 °C. Also, the IC50 at FMS kinase came to 3200 ± 70 nM.
For the compound `Nc1nccc2c1ccn2-c1ccc(NC(=O)Nc2cc(C(F)(F)F)cc(C(F)(F)F)c2)cc1` [Compound 1m], at FMS kinase, the IC50 worked out at 1450 ± 30 nM.
As to `Nc1nccc2c1ccn2-c1ccc(NC(=O)c2ccc(Cl)c(Cl)c2)cc1` [Compound 1n], at FMS kinase, the IC50 is greater than 81000 nM.
For `Nc1nccc2c1ccn2-c1cccc(NC(=O)c2ccc(Cl)c(Cl)c2)c1` [Compound 1o], the melting point was greater than 280 °C. Further, the IC50 on FMS kinase came to 40700 ± 2400 nM.
As to `Nc1nccc2c1ccn2-c1ccc(NC(=O)c2ccc(N3CCOCC3)c(C(F)(F)F)c2)cc1` [Compound 1p], the melting point was 253 to 256 °C (dec.). The IC50 on FMS kinase is 100 ± 30 nM.

By IC50 is commonly meant the concentration that inhibits the measured activity by half. For orientation: melting point means the temperature, or range, at which the solid turns liquid.
